Here are results for one compound from patent US8729023B2 (priority 2002, dated 2014).

Data set [1] deals with JHU-4 (MAT-LyLu) prostate tumor. The settings on record: IRL1620 3 nmol/kg alone; day 19.
Data set [2] concerns MNU-induced breast tumors. The note with it: IRL1620 3 nmol/kg alone; 5 doses; 30 days after final dose.
The test system of data set [3] is JHU-4 (MAT-LyLu) prostate tumor. The experiment in a line: Effect of IRL1620 on [^14C]doxorubicin concentration in tumor and organs of prostate tumor bearing rats. The note with it: for increase in concentration of [^14C]doxorubicin in tumor compared to saline treated rats: sacrifice 3 hours after. The data set is classed as in vivo, rat. Here is the method: Prostate tumors were induced in male Copenhagen rats using JHU-4 (MAT-LyLu) cells obtained from ATCC (Manassas, Va.). See Gaddipati et al., J Exp Ther Oncol, 4(3): 203-12 (2004) which is hereby incorporated by reference. The cells were maintained in RPMI 1640 medium supplemented with fetal bovine serum (10%) in a humidified incubator containing 5% CO2 at 37° C. Hair was shaved from the dorsal side of the neck, and animals were inoculated with 10,000 JHU-4 (MAT-LyLu) cells in 100 μl phosphate buffered saline by subcutaneous (s.c.) injection. Tumor appearance and location was monitored by manual palpation and tumor diameters were measured with a digital caliper. Experimental procedures began once tumor size reached about 200 mm^3.
Biodistribution Study. Tumor bearing rats were randomly grouped (N=6/group) to receive saline or IRL1620 (1, 3 or 6 nmol/kg) via the tail vein in a final volume of 0.2 ml. Rats from each group then received [^14C]doxorubicin (1 μCi/rat) i.v. in a final volume of 1.0 ml 15 minutes after saline or IRL1620 administration. Animals were then sacrificed 3 hours after [^14C]doxorubicin administration. The concentration of [^14C]doxorubicin in the tumor, heart, brain, kidneys, liver, lungs, bone marrow, prostate, skeletal muscles and spleen were examined. Specifically, tumor and organs were sliced into small pieces. The femurs from both legs were separated and weighed with bone marrow flushed out using a syringe containing tissue solubilizer. About 500 mg of tissue or tumor was placed in separate vials containing tissue solubilizer (6 ml) and incubated in a water bath at about 50° C. The vials were removed from the water bath after the tissue or tumor was dissolved and 1.2 ml of 10% glacial acetic acid was added. The contents of the vial were then equally divided into 3 vials and 15 ml of liquid scintillation cocktail (Safety Solve, RPI Corp, Chicago, Ill.) was added to each vial and kept overnight for equilibration. The radioactivity in the tubes was counted using a liquid scintillation counter (Beckman Coulter, LS 6500).

Data set [4] is described as follows: Effect of IRL1620 on plasma pharmacokinetics of paclitaxel, HPLC-UV. The data set is classed as in vivo, rat. The settings on record: normal or tumor bearing rats; paclitaxel i.v. 3 mg/kg 15 minutes after IRL1620 3 nmol/kg. The procedure:
Virgin female Sprague Dawley rats (Harlan Co., Madison, Wis.), 48 days old (120-140 g) were used for this study. Upon arrival, all rats were housed three to a cage, in a room with controlled temperature (23±1° C.), humidity (50±10%) and artificial light (0600-1800 hr). The rats were given food and water ad libitum. The experiments were begun only after the rats have been acclimatized to the environment for at least 4 days.
N-methyl-n-nitrosourea (MNU) was administered at a dose of 50 mg/kg, i.p. and rats were palpated twice weekly. Once tumors reached about 75-100 mm^3, pharmacokinetic studies were performed.
HPLC-UV studies. […]
Plasma samples were analyzed for paclitaxel using an HPLC system. […] A 100 μL (lower standard curve and samples collected after IV administration) aliquot of the reconstituted material was injected into a 4 mm NovaPak 150×3.9 mm C18 column (Waters Associates, Milford, Mass.) preceded by a 4 mm NovaPak 20×3.9 mm C18 precolumn using a Waters 2695 separations module connected to a Waters 2487 absorbance detector set at 227 nm. […] Plasma concentrations for paclitaxel were calculated from the ratio of the area of the paclitaxel peak to the area of the N-cyclohexyl benzamide peak using least-squares linear regression and weighting by 1/x. Within day and between days variability measured by a coefficient of variation was <10%. […]

In another data set the test system is MNU-induced breast tumor. Briefly: Effect of IRL1620 on bio-distribution of [^3H] paclitaxel in tumor and major organs of breast tumor bearing rats. The note with it: IRL1620 3 nmol/kg.
In data set [5] the test system is JHU-4 (MAT-LyLu) prostate tumor. The settings on record: IRL1620 3 nmol/kg alone; day 16.
Data set [6] deals with human melanoma cells (UISO-MEL-2) tumor. The note with it: melanoma mice.
[7] abbreviates: paclitaxel plasma, three compartmental model, tumor bearing rats, after vehicle or IRL1620 3 nmol/kg.

Like-named read-outs stand apart in the source and are kept apart here. *1 amine or outer side, *2 acyl side, *3 side chain or, on linkers, in order; H or OH if unused. Where a SMILES comes first, the peptide text is derived from it. Suc = O=C(CCC(=O)[*:2])[*:1] A value given as a limit tells only on which side of the number the result lay.

Consider `CC[C@H](C)[C@H](NC(=O)[C@H](CC(=O)O)NC(=O)[C@H](CC(C)C)NC(=O)[C@H](Cc1c[nH]cn1)NC(=O)[C@H](C)NC(=O)[C@H](Cc1ccccc1)NC(=O)[C@H](Cc1ccc(O)cc1)NC(=O)[C@@H](NC(=O)[C@H](C)NC(=O)[C@H](CCC(=O)O)NC(=O)[C@H](CCC(=O)O)NC(=O)[C@H](CC(=O)O)NC(=O)CCC(=O)O)C(C)C)C(=O)N[C@H](C(=O)N[C@@H](Cc1c[nH]c2ccccc12)C(=O)O)[C@@H](C)CC` [IRL1620, N-suc-[Glu9, Ala11, 15]ET-1 (8-21)] (Suc-DEEAVYFAHLDIIW-OH), for which the body weight in data set [1] stood at 175.72 ± 2.35 g. In addition, the “increase in body weight compared to baseline” value in data set [2] is under 10%. Moreover, the “change in the uptake of [^14C]doxorubicin in tumor or other tissues” value in data set [3] (1 nmol/kg IRL1620 15 minutes before [^14C]doxorubicin) is listed as “did not produce any significant change”. Moreover, the “increase in concentration of [^14C]doxorubicin in tumor compared to saline treated rats” value in data set [3] (3 nmol/kg IRL1620 15 minutes before [^14C]doxorubicin) is recorded as 115.85%. Also, the “increase in concentration of [^14C]doxorubicin in tumor compared to saline treated rats” value in data set [3] (6 nmol/kg IRL1620 15 minutes before [^14C]doxorubicin) amounted to 80.02%. Moreover, in data set [3] (IRL1620 1, 3 or 6 nmol/kg), the “accumulation of [^14C]doxorubicin in the heart, brain, kidneys, liver, lungs, bone marrow, prostate, skeletal muscles or spleen compared to control animals” value was “No dose of IRL1620 produced significant increases”. Also, the “effect on the pharmacokinetic profile of paclitaxel” value (non-compartmental analysis, tumor bearing rats, IRL1620 3 nmol/kg i.v. 15 minutes before paclitaxel) was “did not affect”. Where the note is “paclitaxel plasma, non-compartmental, tumor bearing rats, paclitaxel i.v. 15 minutes after vehicle or IRL1620 3 nmol/kg”, the Lambda is 0.10 ± 0.05. Under setting [7], this compound had a K10 of 1.72 ± 0.57, a K12 of 34.93 ± 23.26 and a K13 of 3.92 ± 1.88. For the same compound, the “paclitaxel compartmental pharmacokinetic parameters in the IRL1620 treated group versus the vehicle treated group” value (three compartmental model, IRL1620 3 nmol/kg 15 minutes before paclitaxel) is on record as “not significantly different”. Further, the “pharmacokinetic profile of paclitaxel” value in data set [4] is recorded as “not affected”. Also, the “accumulation of paclitaxel in the liver, lungs, kidneys and spleen compared to control animals” value in the data set with MNU-induced breast tumor is on record as “did not significantly alter”. Moreover, the “increase in tumor paclitaxel concentration compared to saline treated rats” value with MNU-induced breast tumor ([^3H] paclitaxel administered 15 minutes after IRL1620, sacrifice 3 hours after paclitaxel) was 277.1%. In addition, the “increase in tumor paclitaxel concentration compared to saline treated rats” value with MNU-induced breast tumor ([^3H] paclitaxel administered 240 minutes after IRL1620) turned out to be 34.7%. Further, in data set [5], the body weight was 202.2 ± 7.28 g and the “percent difference in body weight gain from the beginning of the experiment” value is given as 14.19±1.66%. In data set [6] (IRL1620 3 nmol/kg), the “accumulation of [^3H]paclitaxel in the heart, kidneys, liver, lungs or spleen compared to saline treated animals” value is given as “did not produce significant increases”. In addition, in data set [6] (IRL1620 3 nmol/kg 15 minutes before [^3H]paclitaxel), the “increase in tumor [^3H]paclitaxel compared to vehicle treated mice” value turned out to be 572.99%. Also, the “tumor [^3H]paclitaxel concentration” value in data set [6] (IRL1620 3 nmol/kg 15 minutes before [^3H]paclitaxel, sacrifice 3 hours after) is on record as 274.28 nmol/g tissue.
